# Molecular target: T1, human HAQ STING isoform (hSTING HAQ) (Homo sapiens, UniProt Q86WV6, G230A/H232R/R293Q/R71H)
# T1 construct: THP1 cells express the naturally occurring human HAQ STING isoform (hSTING HAQ); host or cells: THP1
# Experiment: IFN-β mRNA level in THP1 cells (qPCR, STING agonist cellular activity)
# Type: cell-based
# Conditions: compound at 3.6 μM, 2 hrs, IFNβ expression normalized against GAPDH by the 2^-ΔΔCT method, DMSO = 1.0
# Protocol: Cellular activity of STING agonists was determined by mRNA levels of IFN-β in THP1 (Otwo Biotech HTX1621) cell line. THP1 cells express the naturally occurring human HAQ STING isoform (hSTING HAQ), which responses to the activation of STING agonists.
# THP1 cells were seeded into Falcon 12-well cell Culture Plate (Corning #353043) at 9×10^5 cells per well, in 1 ml complete culture medium (RPMI-1640, GIBCO #C1187500BT) containing 10% heat inactivated FBS (GIBCO #10099141C), 1% Pen-Strep (HyClone SV30010) and incubated at 37° ΔC, 5% CO2 overnight. On day 2, compound (final concentration at 3.6 μM) or DMSO (0.1%, Sigma Aldrich #8418) was added to THP1 cells and further incubated for 2 hrs min at 37° ΔC, 5% CO2. Cells were then collected for RNA extraction.
# Total RNA was extracted with TRIzol reagent (Invitrogen #15596026) and […] was used to synthesize first-strand cDNA with Maxima First Strand cDNA Synthesis Kit (TAKARA #RR036A). Quantitative PCR was performed with Maxima SYBR Green qPCR Master Mix (ABI #4367659, USA). The primer sequences used were as follows: GAPDH (5′-[…]-3′, 5′-[…]-3′). INFP3 (5′-[…]-3′,5′-[…]-3′) Real-time PCR was performed on QuantStudio™ 5 Real-Time PCR System (Thermo Fisher). Relative expression levels of IFNβ gene were normalized against the level of GAPDH expression by the 2^−ΔΔCT method. Each PCR reaction was performed in triplicates.
# T1 sequence (Q86WV6 whole entry R71H/G230A/H232R/R293Q, canonical isoform): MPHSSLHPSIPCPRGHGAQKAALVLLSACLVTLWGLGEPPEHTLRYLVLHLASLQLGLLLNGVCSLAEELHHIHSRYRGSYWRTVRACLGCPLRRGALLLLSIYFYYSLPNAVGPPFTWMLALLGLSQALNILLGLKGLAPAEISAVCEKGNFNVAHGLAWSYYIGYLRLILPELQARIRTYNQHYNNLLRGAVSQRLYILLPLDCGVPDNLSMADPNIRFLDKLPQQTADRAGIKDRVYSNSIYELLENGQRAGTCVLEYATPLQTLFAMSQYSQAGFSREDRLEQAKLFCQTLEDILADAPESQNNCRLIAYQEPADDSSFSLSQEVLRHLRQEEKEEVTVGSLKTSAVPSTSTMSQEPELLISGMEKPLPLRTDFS
row,SMILES,Relative mRNA INFβ/GAPDH THP 1
1,"COc1cc(CN(Cc2cn3c4c(c(F)c(F)cc4c2=O)OCC3C)[C@H]2CCCN(c3ccc(N(C)C)nc3)C2)ccn1 (stereo partly drawn) [Compound 19, 11-[[[(3S)-1-[6-(dimethylamino)-3-pyridyl]-3-piperidyl]-[(2-methoxy-4-pyridyl)methyl]amino]methyl]-6,7-difluoro-2-methyl-4-oxa-1-azatricyclo[7.3.1.05,13]trideca-5(13),6,8,11-tetraen-10-one]",2625.9
2,"COc1cc(CN(Cc2cn3c4c(c(F)c(F)cc4c2=O)OCC3C)[C@H]2CCCN(c3ccc(NCC4CC4)nc3)C2)ccn1 (stereo partly drawn) [Compound 20, 11-[[[(3S)-1-[6-(cyclopropylmethylamino)-3-pyridyl]-3-piperidyl]-[(2-methoxy-4-pyridyl)methyl]amino]methyl]-6,7-difluoro-2-methyl-4-oxa-1-azatricyclo[7.3.1.0^5,13]trideca-5(13),6,8,11-tetraen-10-one]",2142.1
3,"COc1cc(CN(Cc2cn3c4c(c(F)c(F)cc4c2=O)OCC3C)[C@H]2CCCN(c3ccc(N(C)C4CC4)nc3)C2)ccn1 (stereo partly drawn) [Compound 21, 11-[[[(3S)-1-[6-[cyclopropyl(methyl)amino]-3-pyridyl]-3-piperidyl]-[(2-methoxy-4-pyridyl)methyl]amino]methyl]-6,7-difluoro-2-methyl-4-oxa-1-azatricyclo[7.3.1.0^5,13]trideca-5(13),6,8,11-tetraen-10-one]",114.6
4,"COc1cc(CN(Cc2cn3c4c(c(F)c(F)cc4c2=O)OCC3C)[C@H]2CCCN(c3cccnc3)C2)ccn1 (stereo partly drawn) [Compound 22, 9,10-difluoro-6-((((2-methoxypyridin-4-yl)methyl)((S)-1-(pyridin-3-yl)piperidin-3-yl)amino)methyl)-3-methyl-2H-[1,4]oxazino[2,3,4-ij]quinolin-7(3H)-one]",6463.9
5,"COc1cc(CN(Cc2cn3c4c(c(N5CC6(CCNCC6)C5)c(F)cc4c2=O)OCC3C)[C@H]2CCCN(c3ccc(N)nc3)C2)ccn1 (stereo partly drawn) [Compound 24, 6-((((S)-1-(6-aminopyridin-3-yl)piperidin-3-yl)((2-methoxypyridin-4-yl)methyl)amino)methyl)-9-fluoro-3-methyl-10-(2,7-diazaspiro[3.5]nonan-2-yl)-2H-[1,4]oxazino[2,3,4-ij]quinolin-7(3H)-one]",437.3
6,"COc1cc(CN(Cc2cn3c4c(c(N5CCN(Cc6oc(=O)oc6C)CC5)c(F)cc4c2=O)OCC3C)[C@H]2CCCN(c3ccc(N)nc3)C2)ccn1 (stereo partly drawn) [Compound 25, 6-((((S)-1-(6-aminopyridin-3-yl)piperidin-3-yl)((2-methoxypyridin-4-yl)methyl)amino)methyl)-9-fluoro-3-methyl-10-(4-((5-methyl-2-oxo-1,3-dioxol-4-yl)methyl)piperazin-1-yl)-2H-[1,4]oxazino[2,3,4-ij]quinolin-7(3H)-one]",604.8
7,"COc1cc(CN(Cc2cn3c4c(c(N5CCN(CNC(N)=O)CC5)c(F)cc4c2=O)OCC3C)[C@H]2CCCN(c3ccc(N)nc3)C2)ccn1 (stereo partly drawn) [Compound 26, 1-((4-(6-((((S)-1-(6-aminopyridin-3-yl)piperidin-3-yl)((2-methoxypyridin-4-yl)methyl)amino)methyl)-9-fluoro-3-methyl-7-oxo-3,7-dihydro-2H-[1,4]oxazino[2,3,4-ij]quinolin-10-yl)piperazin-1-yl)methyl)urea]",3.5
8,"COc1cc(CN(Cc2cn3c4c(c(N5CCOCC5)c(F)cc4c2=O)OCC3C)[C@H]2CCCN(c3ccc(N)nc3)C2)ccn1 (stereo partly drawn) [Compound 27, 6-((((S)-1-(6-aminopyridin-3-yl)piperidin-3-yl)((2-methoxypyridin-4-yl)methyl)amino)methyl)-9-fluoro-3-methyl-10-morpholino-2H-[1,4]oxazino[2,3,4-ij]quinolin-7(3H)-one]",372.4
9,"COc1cc(CN(Cc2cn3c4c(c(N5CCCCC5)c(F)cc4c2=O)OCC3C)[C@H]2CCCN(c3ccc(N)nc3)C2)ccn1 (stereo partly drawn) [Compound 28, 6-((((S)-1-(6-aminopyridin-3-yl)piperidin-3-yl)((2-methoxypyridin-4-yl)methyl)amino)methyl)-9-fluoro-3-methyl-10-(piperidin-1-yl)-2H-[1,4]oxazino[2,3,4-ij]quinolin-7(3H)-one]",1530.0
10,"COc1cc(CN(Cc2cn3c4c(c(N5CC6(COC6)C5)c(F)cc4c2=O)OCC3C)[C@H]2CCCN(c3ccc(N)nc3)C2)ccn1 (stereo partly drawn) [Compound 30, 6-((((S)-1-(6-aminopyridin-3-yl)piperidin-3-yl)((2-methoxypyridin-4-yl)methyl)amino)methyl)-9-fluoro-3-methyl-10-(2-oxa-6-azaspiro[3.3]heptan-6-yl)-2H-[1,4]oxazino[2,3,4-ij]quinolin-7(3H)-one]",986.1
11,"COc1cc(CN(Cc2cn3c4c(c(N5CCC(O)CC5)c(F)cc4c2=O)OCC3C)[C@H]2CCCN(c3ccc(N)nc3)C2)ccn1 (stereo partly drawn) [Compound 31, 6-((((S)-1-(6-aminopyridin-3-yl)piperidin-3-yl)((2-methoxypyridin-4-yl)methyl)amino)methyl)-9-fluoro-10-(4-hydroxypiperidin-1-yl)-3-methyl-2H-[1,4]oxazino[2,3,4-ij]quinolin-7(3H)-one]",1162.4
12,"COc1cc(CN(Cc2cn3c4c(c(N5CCN(C)C(C)C5)c(F)cc4c2=O)OCC3C)[C@H]2CCCN(c3ccc(N)nc3)C2)ccn1 (stereo partly drawn) [Compound 32, 6-((((S)-1-(6-aminopyridin-3-yl)piperidin-3-yl)((2-methoxypyridin-4-yl)methyl)amino)methyl)-10-(3,4-dimethylpiperazin-1-yl)-9-fluoro-3-methyl-2H-[1,4]oxazino[2,3,4-ij]quinolin-7(3H)-one]",814.9
13,"COc1cc(CN(Cc2cn3c4c(c(N5CCc6ccccc6C5)c(F)cc4c2=O)OCC3C)[C@H]2CCCN(c3ccc(N)nc3)C2)ccn1 (stereo partly drawn) [Compound 33, 6-((((S)-1-(6-aminopyridin-3-yl)piperidin-3-yl)((2-methoxypyridin-4-yl)methyl)amino)methyl)-10-(3,4-dihydroisoquinolin-2(1H)-yl)-9-fluoro-3-methyl-2H-[1,4]oxazino[2,3,4-ij]quinolin-7(3H)-one]",849.2

# Next, values leading:
row,Relative mRNA INFβ/GAPDH THP 1,SMILES
1,54.8,"COc1cc(CN(Cc2cn3c4c(c(N5CCC(N)C5)c(F)cc4c2=O)OCC3C)[C@H]2CCCN(c3ccc(N)nc3)C2)ccn1.Cl (stereo partly drawn) [Compound 34, 6-((((S)-1-(6-aminopyridin-3-yl)piperidin-3-yl)((2-methoxypyridin-4-yl)methyl)amino)methyl)-10-(3-aminopyrrolidin-1-yl)-9-fluoro-3-methyl-2H-[1,4]oxazino[2,3,4-ij]quinolin-7(3H)-one Hydrochloride]"
2,3791.8,"COc1cc(CN(Cc2cn3c4c(c(N5C[C@@H](C)N[C@@H](C)C5)c(F)cc4c2=O)OCC3C)[C@H]2CCCN(c3ccc(N)nc3)C2)ccn1 (stereo partly drawn) [Compound 35, 6-((((S)-1-(6-aminopyridin-3-yl)piperidin-3-yl)((2-methoxypyridin-4-yl)methyl)amino)methyl)-10-((3S,5R)-3,5-dimethylpiperazin-1-yl)-9-fluoro-3-methyl-2H-[1,4]oxazino[2,3,4-ij]quinolin-7(3H)-one]"
3,9395.6,"COc1cc(CN(Cc2cn3c4c(c(N5CCC(N6CCOCC6)CC5)c(F)cc4c2=O)OCC3C)[C@H]2CCCN(c3ccc(N)nc3)C2)ccn1 (stereo partly drawn) [Compound 36, 6-((((S)-1-(6-aminopyridin-3-yl)piperidin-3-yl)((2-methoxypyridin-4-yl)methyl)amino)methyl)-9-fluoro-3-methyl-10-(4-morpholinopiperidin-1-yl)-2H-[1,4]oxazino[2,3,4-ij]quinolin-7(3H)-one]"
4,6829.2,"COc1cc(CN(Cc2cn3c4c(c(N5CCCCC5C)c(F)cc4c2=O)OCC3C)[C@H]2CCCN(c3ccc(N)nc3)C2)ccn1 (stereo partly drawn) [Compound 37, 6-((((S)-1-(6-aminopyridin-3-yl)piperidin-3-yl)((2-methoxypyridin-4-yl)methyl)amino)methyl)-9-fluoro-3-methyl-10-(2-methylpiperidin-1-yl)-2H-[1,4]oxazino[2,3,4-ij]quinolin-7(3H)-one]"
5,672.0,"COc1cc(CN(Cc2cn3c4c(c(N5CC(O)C5)c(F)cc4c2=O)OCC3C)[C@H]2CCCN(c3ccc(N)nc3)C2)ccn1 (stereo partly drawn) [Compound 38, 6-((((S)-1-(6-aminopyridin-3-yl)piperidin-3-yl)((2-methoxypyridin-4-yl)methyl)amino)methyl)-9-fluoro-10-(3-hydroxyazetidin-1-yl)-3-methyl-2H-[1,4]oxazino[2,3,4-ij]quinolin-7(3H)-one]"
6,81.3,"COc1cc(CN(Cc2cn3c4c(c(N5CCNCC5)c(F)cc4c2=O)OCC3C)[C@H]2CCCN(c3ccc(N)nc3)C2)ccn1 (stereo partly drawn) [Compound 39, 6-((((S)-1-(6-aminopyridin-3-yl)piperidin-3-yl)((2-methoxypyridin-4-yl)methyl)amino)methyl)-9-fluoro-3-methyl-10-(piperazin-1-yl)-2H-[1,4]oxazino[2,3,4-ij]quinolin-7(3H)-one]"

# Source: patent US20250171461A1, “STIMULATOR OF INTERFERON GENES (STING) MODULATORS, AND COMPOSITIONS AND METHODS THEREOF” (Geode Therapeutics Inc., priority 2022, published 2025)
